Assay results reported in US20230183237A1, “COMPETITIVE AND NONCOMPETITIVE INHIBITORS OF THE MUSCARINIC ACETYLCHOLINE RECEPTOR M5” (Vanderbilt University, priority 2020, published 2023).
pIC50: −log10 of the molar value.

Each molecule was assayed against T1, hM5 (Homo sapiens, UniProt P08912) (assay: Calcium mobilization concentration-response (IC50 vs EC80 acetylcholine), CHO hM5). Conditions: CELL LINE hM5; calcium mobilization, EC80 acetylcholine addition; read-out: IC50.
T1 construct: expressed in transfected cells
T1 sequence (P08912 1-532): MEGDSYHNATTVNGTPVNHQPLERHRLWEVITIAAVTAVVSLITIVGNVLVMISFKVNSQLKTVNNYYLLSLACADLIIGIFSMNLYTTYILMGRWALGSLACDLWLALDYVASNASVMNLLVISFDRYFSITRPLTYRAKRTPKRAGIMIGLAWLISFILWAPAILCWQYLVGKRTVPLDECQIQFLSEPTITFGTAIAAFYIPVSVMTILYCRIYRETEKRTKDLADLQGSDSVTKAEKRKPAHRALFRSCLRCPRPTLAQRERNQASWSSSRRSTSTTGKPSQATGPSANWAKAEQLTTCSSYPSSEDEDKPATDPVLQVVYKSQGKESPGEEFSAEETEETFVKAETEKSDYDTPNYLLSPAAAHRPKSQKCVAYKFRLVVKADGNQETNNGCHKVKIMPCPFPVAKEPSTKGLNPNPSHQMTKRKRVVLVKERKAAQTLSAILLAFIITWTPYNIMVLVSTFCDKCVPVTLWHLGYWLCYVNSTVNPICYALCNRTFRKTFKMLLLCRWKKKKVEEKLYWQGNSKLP
Format: cell-based
Outline: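 IC50 values derive from percent maximal acetylcholine response after an EC80 ACh addition, measured as kinetic calcium fluorescence (static ratio, max−min). Test compounds were added 140 s before agonist. Cells: stable hM5-CHO in HEPES-buffered HBSS with 2.5 mM probenecid, pH 7.4; ≥3 independent triplicate determinations.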

Row | pIC50 | SMILES
1 | < 5.00 | O=S(=O)(c1ccc2ncccc2c1)N1CCC(c2cc3[nH]ccc3cn2)CC1 [Compound 31, 6-((4-(1H-pyrrolo[3,2-c]pyridin-6-yl)piperidin-1-yl)sulfonyl)quinoline]
2 | < 5.00 | COc1cc2ncnn2cc1C1CCN(S(=O)(=O)c2ccc3ncsc3c2)CC1 [Compound 82, 6-((4-(7-methoxy-[1,2,4]triazolo[1,5-a]pyridin-6-yl)piperidin-1-yl)sulfonyl)benzo[d]thiazole]
3 | < 5.00 | O=S(=O)(c1cnc2n1CCC2)N1CC=C(c2cc3ncnn3cc2Cl)CC1 [Compound 206, 6-chloro-7-(1-((6,7-dihydro-5H-pyrrolo[1,2-a]imidazol-3-yl)sulfonyl)-1,2,3,6-tetrahydropyridin-4-yl)-[1,2,4]triazolo[1,5-a]pyridine]
4 | 8.22 | Cc1cc2ncnn2cc1C1CCN(S(=O)(=O)c2cnn3c2CCCC3)CC1 [Compound 238, 7-methyl-6-(1-((4,5,6,7-tetrahydropyrazolo[1,5-a]pyridin-3-yl)sulfonyl)piperidin-4-yl)-[1,2,4]triazolo[1,5-a]pyridine]
5 | 5.89 | [2H]C([2H])([2H])n1cc(S(=O)(=O)N2CCC(c3cn4ncnc4cc3C)CC2)c(C2CC2)n1 [Compound 132, 6-(1-((3-cyclopropyl-1-(methyl-d3)-1H-pyrazol-4-yl)sulfonyl)piperidin-4-yl)-7-methyl-[1,2,4]triazolo[1,5-a]pyridine]
6 | 7.64 | Cc1cc2ncnn2nc1C1CCN(S(=O)(=O)c2cnn3c2CCC3)CC1 [Compound 187, 6-(1-((5,6-dihydro-4H-pyrrolo[1,2-b]pyrazol-3-yl)sulfonyl)piperidin-4-yl)-7-methyl-[1,2,4]triazolo[1,5-b]pyridazine]
7 | 7.22 | Cc1cc2ncnn2nc1C1CCN(S(=O)(=O)c2cnn(C)c2C)CC1 [Compound 165, 6-(1-((1,5-dimethyl-1H-pyrazol-4-yl)sulfonyl)piperidin-4-yl)-7-methyl-[1,2,4]triazolo[1,5-b]pyridazine]
8 | 6.06 | Cc1cc2nccn2nc1C1CCN(S(=O)(=O)c2cnn(C(F)F)c2C)CC1 [Compound 312, 6-(1-((1-(difluoromethyl)-5-methyl-1H-pyrazol-4-yl)sulfonyl)piperidin-4-yl)-7-methylimidazo[1,2-b]pyridazine]
9 | < 5.00 | Cc1cc2ncnn2nc1C1CCN(S(=O)(=O)c2cc3c(cc2F)OCC3)CC1 [Compound 181, 6-(1-((6-fluoro-2,3-dihydrobenzofuran-5-yl)sulfonyl)piperidin-4-yl)-7-methyl-[1,2,4]triazolo[1,5-b]pyridazine]
10 | 5.68 | O=S(=O)(c1cc2c(cc1F)OCC2)N1CCC(c2cn3ncnc3cc2C(F)(F)F)CC1 [Compound 110, 6-(1-((6-fluoro-2,3-dihydrobenzofuran-5-yl)sulfonyl)piperidin-4-yl)-7-(trifluoromethyl)-[1,2,4]triazolo[1,5-a]pyridine]
11 | 7.07 | CCc1cc2ncnn2cc1C1CCN(S(=O)(=O)c2cnn(C)c2C(F)F)CC1 [Compound 301, 6-(1-((5-(difluoromethyl)-1-methyl-1H-pyrazol-4-yl)sulfonyl)piperidin-4-yl)-7-ethyl-[1,2,4]triazolo[1,5-a]pyridine]
12 | < 5.00 | Cc1cc2nccn2cc1C1CCN(S(=O)(=O)c2cn(C)nc2C)CC1 [Compound 71, 6-(1-((1,3-dimethyl-1H-pyrazol-4-yl)sulfonyl)piperidin-4-yl)-7-methylimidazo[1,2-a]pyridine]
13 | 7.89 | Cc1c(S(=O)(=O)N2CC=C(c3cn4ncnc4c(F)c3Cl)CC2)cnn1C [Compound 381, 7-chloro-6-(1-((1,5-dimethyl-1H-pyrazol-4-yl)sulfonyl)-1,2,3,6-tetrahydropyridin-4-yl)-8-fluoro-[1,2,4]triazolo[1,5-a]pyridine]
14 | 6.63 | O=S(=O)(c1cnn2c1CCCC2)N1CCC(c2ccc3ncnn3c2)CC1 [Compound 287, 6-(1-((4,5,6,7-tetrahydropyrazolo[1,5-a]pyridin-3-yl)sulfonyl)piperidin-4-yl)-[1,2,4]triazolo[1,5-a]pyridine]
15 | < 5.00 | Cc1cc2ncnn2cc1C1CCN(S(=O)(=O)c2ccsc2)CC1 [Compound 125, 7-methyl-6-(1-(thiophen-3-ylsulfonyl)piperidin-4-yl)-[1,2,4]triazolo[1,5-a]pyridine]
16 | 6.95 | Cc1c(S(=O)(=O)N2CCC(c3cn4ncnc4cc3C(F)(F)F)CC2)c(Cl)nn1C [Compound 341, 6-(1-((3-chloro-1,5-dimethyl-1H-pyrazol-4-yl)sulfonyl)piperidin-4-yl)-7-(trifluoromethyl)-[1,2,4]triazolo[1,5-a]pyridine]
17 | < 5.00 | Cc1cc2ncnn2cc1C1CCN(S(=O)(=O)c2c(C)nn(C)c2C(F)(F)F)C(C)C1 (centres unmarked) [Compound 362, 6-(1-((1,3-dimethyl-5-(trifluoromethyl)-1H-pyrazol-4-yl)sulfonyl)-2-methylpiperidin-4-yl)-7-methyl-[1,2,4]triazolo[1,5-a]pyridine]
18 | 7.72 | Cn1ncc(S(=O)(=O)N2CCC(c3cn4ncnc4cc3Cl)CC2)c1C(F)F [Compound 295, 7-chloro-6-(1-((5-(difluoromethyl)-1-methyl-1H-pyrazol-4-yl)sulfonyl)piperidin-4-yl)-[1,2,4]triazolo[1,5-a]pyridine]
19 | < 5.00 | Cc1cc2ncnn2cc1C1CCN(S(=O)(=O)c2cc3c(cc2F)OCC3)C1 (centres unmarked) [Compound 127, 6-(1-((6-fluoro-2,3-dihydrobenzofuran-5-yl)sulfonyl)pyrrolidin-3-yl)-7-methyl-[1,2,4]triazolo[1,5-a]pyridine]
20 | 5.24 | Cc1ccncc1C1CCN(S(=O)(=O)c2cnn(C)c2C)CC1 [Compound 384, 3-(1-((1,5-dimethyl-1H-pyrazol-4-yl)sulfonyl)piperidin-4-yl)-4-methylpyridine]
21 | < 5.00 | COc1ccc(S(=O)(=O)N2CCC(c3nn4ncnc4cc3C)CC2)c(C)c1 [Compound 186, 6-(1-((4-methoxy-2-methylphenyl)sulfonyl)piperidin-4-yl)-7-methyl-[1,2,4]triazolo[1,5-b]pyridazine]
22 | < 5.00 | O=S(=O)(c1ccc2c(c1)CCO2)N1CCC(c2ccc3ncnn3c2)CC1 [Compound 60, 6-(1-((2,3-dihydrobenzofuran-5-yl)sulfonyl)piperidin-4-yl)-[1,2,4]triazolo[1,5-a]pyridine]

Same assay, conditions: CELL LINE hM5; vs EC80 acetylcholine; read-out: IC50

Row | pIC50 | SMILES
23 | 6.49 | Cn1ncc(S(=O)(=O)N2CCC(c3c4c(nn3C)CCCC4)CC2)c1Cl [Compound 592, 3-(1-((5-chloro-1-methyl-1H-pyrazol-4-yl)sulfonyl)piperidin-4-yl)-2-methyl-4,5,6,7-tetrahydro-2H-indazole]
24 | 7.19 | CCc1cc2ncnn2cc1C1CCN(S(=O)(=O)c2cc(C)ns2)CC1 [Compound 493, 5-((4-(7-ethyl-[1,2,4]triazolo[1,5-a]pyridin-6-yl)piperidin-1-yl)sulfonyl)-3-methylisothiazole]
25 | 7.24 | Cn1ncc(S(=O)(=O)N2CCC(c3cn4ncnc4cc3Cl)CC2)c1CC#N [Compound 406, 2-(4-((4-(7-chloro-[1,2,4]triazoto[1,5-a]pyridin-6-yl)piperidin-1-yl)sulfonyl)-1-methyl-1H-pyrazol-5-yl)acetonitrile]
26 | 7.49 | Cc1cc2ncccc2cc1C1CCN(S(=O)(=O)c2cnn(C)c2C)CC1 [Compound 418, 6(1-((1,5-dimethyl-1H-pyrazol-4-yl)sulfonyl)piperidin-4-yl)-7-methylquinoline]
27 | 6.83 | CCc1cc2ncnn2cc1C1CCN(S(=O)(=O)c2cnn(C)c2C#N)CC1 [Compound 407, 4-((4-(7-ethyl-[1,2,4]triazolo[1,5-a]pyridin-6-yl)piperidin-1-yl)sulfonyl)-1-methyl-1H-pyrazole-5-carbonitrile]
28 | < 5.00 | Cc1c(S(=O)(=O)N2CCC(c3cn4ncnc4cc3C(=O)O)CC2)cnn1C [Compound 479, 6-(1-((1,5-dimethyl-1H-pyrazol-4-yl)sulfonyl)piperidin-4-yl)-[1,2,4]triazolo[1,5-a]pyridine-7-carboxylic acid]
29 | 5.42 | Cc1cc(C(F)(F)F)ncc1C1CCN(S(=O)(=O)c2ccc3c(c2)CCO3)CC1 [Compound 399, 5-(1-((2,3-dihydrobenzofuran-5-yl)sulfonyl)piperidin-4-yl)-4-methyl-2-(trifluoromethyl)pyridine]
30 | 5.20 | Cc1ncc(S(=O)(=O)N2CCC(c3nn4ncnc4cc3C)CC2)o1 [Compound 488, 2-methyl-5-((4-(7-methyl-[1,2,4]triazolo[1,5-b]pyridazin-6-yl)piperidin-1-yl)sulfonyl)oxazole]
31 | 5.20 | Cc1cc(C(F)(F)F)ncc1C1CCN(S(=O)(=O)c2cnn3c2OCCC3)CC1 [Compound 398, 3-((4-(4-methyl-6-(trifluoromethyl)pyridin-3-yl)piperidin-1-yl)sulfonyl)-6,7-dihydro-5H-pyrazolo[5,1-b][1,3]oxazine]
32 | 6.58 | Cn1cnnc1S(=O)(=O)N1CCC(c2cn3ncnc3cc2Cl)CC1 [Compound 541, 7-chloro-6-(1-((4-methyl-4H-1,2,4-triazol-3-yl)sulfonyl)piperidin-4-yl)-[1,2,4]triazolo[1,5-a]pyridine]
